Test results: US20250352512A2, “C4-S[…] DERIVATIVES AND METHODS OF USING” (priority 2022, published 2025)
Like-named read-outs stand apart in the source and are kept apart here.

Assays:
[1] = biological target: T1, ADRA2A (Homo sapiens, UniProt P08913); assay: cell-based
T1 sequence (P08913 1-465): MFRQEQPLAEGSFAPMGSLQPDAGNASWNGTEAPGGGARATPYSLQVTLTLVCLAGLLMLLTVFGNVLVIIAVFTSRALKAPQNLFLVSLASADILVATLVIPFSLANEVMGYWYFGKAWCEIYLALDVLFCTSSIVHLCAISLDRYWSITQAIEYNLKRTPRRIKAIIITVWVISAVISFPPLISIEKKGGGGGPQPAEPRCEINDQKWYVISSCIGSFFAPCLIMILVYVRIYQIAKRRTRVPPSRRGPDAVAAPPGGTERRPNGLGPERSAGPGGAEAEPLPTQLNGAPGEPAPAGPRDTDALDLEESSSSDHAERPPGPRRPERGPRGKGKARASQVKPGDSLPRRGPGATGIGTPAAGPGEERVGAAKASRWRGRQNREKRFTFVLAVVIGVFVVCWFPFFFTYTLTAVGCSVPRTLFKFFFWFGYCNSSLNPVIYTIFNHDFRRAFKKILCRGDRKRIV

[2] = biological target: T1, ADRA2A; assay: cell-based; remark: listed apart in the source
[3] = biological target: T2, AVPR1A (Homo sapiens, UniProt P37288); assay: cell-based
[4] = biological target: T2, AVPR1A; assay: cell-based; remark: listed apart in the source
[5] = biological target: T3, CHRM2 (Homo sapiens, UniProt P08172); assay: cell-based
T3 sequence (P08172 1-466): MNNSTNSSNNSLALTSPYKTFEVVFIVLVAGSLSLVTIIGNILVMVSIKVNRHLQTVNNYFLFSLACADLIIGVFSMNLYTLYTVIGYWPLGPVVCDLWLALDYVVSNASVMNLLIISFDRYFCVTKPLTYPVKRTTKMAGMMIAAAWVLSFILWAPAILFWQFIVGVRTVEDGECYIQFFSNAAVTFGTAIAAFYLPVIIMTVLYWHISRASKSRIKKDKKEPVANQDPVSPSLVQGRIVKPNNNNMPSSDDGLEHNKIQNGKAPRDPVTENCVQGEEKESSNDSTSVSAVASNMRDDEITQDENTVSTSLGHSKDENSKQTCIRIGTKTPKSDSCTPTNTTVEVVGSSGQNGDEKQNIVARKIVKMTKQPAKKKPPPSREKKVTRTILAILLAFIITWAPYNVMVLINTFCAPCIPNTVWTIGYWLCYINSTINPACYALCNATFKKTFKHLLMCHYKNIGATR

[6] = biological target: DRD1 (Homo sapiens, UniProt P21728); assay: cell-based
[7] = biological target: HTR1B (5-HTR1B) (Homo sapiens, UniProt P28222); assay: cell-based
[8] = biological target: T4, HTR2A (Homo sapiens, UniProt P28223); assay: cell-based
[9] = biological target: T4, HTR2A; assay: cell-based; remark: listed apart in the source
[10] = biological target: HTR2B (5-HT2B) (Homo sapiens, UniProt P41595); assay: cell-based
[11] = biological target: T5, HTR3A (5-HT3A) (Homo sapiens, UniProt P46098); assay: cell-based
T5 sequence (P46098 24-478): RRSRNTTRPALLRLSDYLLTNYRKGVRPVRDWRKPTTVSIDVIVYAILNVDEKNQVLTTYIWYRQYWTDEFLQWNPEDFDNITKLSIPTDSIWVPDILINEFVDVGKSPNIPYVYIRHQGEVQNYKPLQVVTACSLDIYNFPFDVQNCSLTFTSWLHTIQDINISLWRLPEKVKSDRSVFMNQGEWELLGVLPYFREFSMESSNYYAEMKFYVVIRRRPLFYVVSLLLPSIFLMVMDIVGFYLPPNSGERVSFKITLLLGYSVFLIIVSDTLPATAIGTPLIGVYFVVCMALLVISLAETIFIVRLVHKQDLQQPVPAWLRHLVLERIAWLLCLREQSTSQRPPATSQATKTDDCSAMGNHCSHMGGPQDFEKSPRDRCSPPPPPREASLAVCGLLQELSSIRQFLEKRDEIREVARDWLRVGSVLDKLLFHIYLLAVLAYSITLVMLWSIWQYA

[12] = biological target: T5, HTR3A (5-HT3A); assay: cell-based; remark: listed apart in the source
[13] = biological target: T6, MAO-A (Homo sapiens, UniProt P21397); assay: biochemical
T6 construct: purchased Sigma
T6 sequence (P21397 1-527): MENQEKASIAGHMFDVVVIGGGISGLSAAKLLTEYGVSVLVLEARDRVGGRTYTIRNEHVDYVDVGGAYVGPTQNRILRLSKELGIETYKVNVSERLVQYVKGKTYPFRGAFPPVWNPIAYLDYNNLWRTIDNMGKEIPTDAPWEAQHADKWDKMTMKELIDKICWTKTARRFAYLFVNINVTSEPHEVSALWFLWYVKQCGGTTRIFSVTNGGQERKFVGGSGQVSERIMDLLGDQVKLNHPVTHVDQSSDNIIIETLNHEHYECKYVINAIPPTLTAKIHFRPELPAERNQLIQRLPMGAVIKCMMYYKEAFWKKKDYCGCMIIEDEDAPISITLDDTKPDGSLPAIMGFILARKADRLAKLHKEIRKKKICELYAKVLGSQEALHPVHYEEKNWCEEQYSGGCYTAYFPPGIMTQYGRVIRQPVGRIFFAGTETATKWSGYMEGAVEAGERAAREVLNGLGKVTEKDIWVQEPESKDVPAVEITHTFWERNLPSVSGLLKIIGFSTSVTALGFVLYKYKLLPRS

[14] = biological target: DAT (Homo sapiens, UniProt Q01959); assay: cell-based
[15] = biological target: NET (Homo sapiens, UniProt P23975); assay: cell-based
[16] = biological target: T7, 5-HT2A receptor (5-HT2AR) (Mus musculus, UniProt P35363); assay: Drug-induced Head Twitch Response (HTR) in mice; type: in vivo; conditions: C57BL/6-Elite mice, i.p. 1 mg/kg, 15-to-30-minute window following administration
T7 construct: tissue Charles River; host or cells: living C57BL/6-Elite mice (neuronal receptor)

[17] = ADRA2A, GPCR, AGN (agonist), read-out: EC50
[18] = ADRA2A, GPCR, ANT (antagonist), read-out: IC50
[19] = AVPR1A, GPCR, AGN (agonist), read-out: EC50
[20] = AVPR1A, GPCR, ANT (antagonist), read-out: IC50
[21] = CHRM2, GPCR, AGN (agonist), read-out: EC50
[22] = DRD1, GPCR, AGN (agonist), read-out: EC50
[23] = HTR1B, GPCR, ANT (antagonist), read-out: IC50
[24] = HTR2A, GPCR, AGN (agonist), read-out: EC50
[25] = HTR2A, GPCR, ANT (antagonist), read-out: IC50
[26] = HTR2B, GPCR, ANT (antagonist), read-out: IC50
[27] = HTR3A, ion channel, OP (opener), read-out: EC50
[28] = HTR3A, ion channel, BL (blocker), read-out: IC50
[29] = MAO-A, enzyme, IN (inhibitor), read-out: IC50
[30] = DAT, transporter, BL (blocker), read-out: IC50
[31] = NET, transporter, BL (blocker), read-out: IC50

Sequence of DAT (Q01959 whole entry): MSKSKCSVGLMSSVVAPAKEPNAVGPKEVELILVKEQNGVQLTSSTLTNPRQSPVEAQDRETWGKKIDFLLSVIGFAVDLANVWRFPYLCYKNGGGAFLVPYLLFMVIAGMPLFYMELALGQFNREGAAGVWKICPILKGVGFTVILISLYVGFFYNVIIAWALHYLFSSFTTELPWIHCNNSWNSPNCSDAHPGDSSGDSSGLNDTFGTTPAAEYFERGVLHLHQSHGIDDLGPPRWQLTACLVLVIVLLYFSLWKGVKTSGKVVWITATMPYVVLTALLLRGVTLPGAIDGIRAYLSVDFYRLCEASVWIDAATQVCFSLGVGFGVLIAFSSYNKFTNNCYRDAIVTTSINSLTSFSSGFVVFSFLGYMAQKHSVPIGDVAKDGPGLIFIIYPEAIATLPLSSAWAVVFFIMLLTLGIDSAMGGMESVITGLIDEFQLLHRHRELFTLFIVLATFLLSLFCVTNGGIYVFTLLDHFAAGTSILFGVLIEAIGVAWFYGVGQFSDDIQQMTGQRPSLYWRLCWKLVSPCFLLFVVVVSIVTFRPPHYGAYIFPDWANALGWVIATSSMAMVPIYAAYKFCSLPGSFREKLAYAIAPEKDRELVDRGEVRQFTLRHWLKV
Sequence of HTR1B (5-HTR1B) (P28222 whole entry): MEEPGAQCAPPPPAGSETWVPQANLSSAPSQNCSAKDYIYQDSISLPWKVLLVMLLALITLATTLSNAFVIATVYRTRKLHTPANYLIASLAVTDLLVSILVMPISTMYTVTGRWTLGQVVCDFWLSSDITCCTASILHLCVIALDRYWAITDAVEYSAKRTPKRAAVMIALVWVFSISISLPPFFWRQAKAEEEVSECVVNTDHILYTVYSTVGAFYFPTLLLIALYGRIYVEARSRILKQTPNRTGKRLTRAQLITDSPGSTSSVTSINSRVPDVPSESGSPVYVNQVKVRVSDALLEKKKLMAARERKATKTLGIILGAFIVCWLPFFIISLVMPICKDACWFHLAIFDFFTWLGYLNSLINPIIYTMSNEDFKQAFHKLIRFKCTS
T7 sequence (P35363 whole entry): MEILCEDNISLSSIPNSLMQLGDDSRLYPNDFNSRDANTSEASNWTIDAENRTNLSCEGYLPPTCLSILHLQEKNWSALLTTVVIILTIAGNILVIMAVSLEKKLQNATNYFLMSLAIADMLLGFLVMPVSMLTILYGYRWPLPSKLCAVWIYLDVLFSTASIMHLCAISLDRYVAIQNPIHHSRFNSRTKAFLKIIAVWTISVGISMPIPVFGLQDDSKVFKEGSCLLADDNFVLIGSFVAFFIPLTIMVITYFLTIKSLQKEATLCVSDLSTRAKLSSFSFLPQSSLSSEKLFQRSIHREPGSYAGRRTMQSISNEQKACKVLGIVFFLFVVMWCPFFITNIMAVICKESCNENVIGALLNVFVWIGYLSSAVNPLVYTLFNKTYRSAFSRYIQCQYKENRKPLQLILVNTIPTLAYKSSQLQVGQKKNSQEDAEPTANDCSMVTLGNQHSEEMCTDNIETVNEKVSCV
T2 sequence (P37288 whole entry): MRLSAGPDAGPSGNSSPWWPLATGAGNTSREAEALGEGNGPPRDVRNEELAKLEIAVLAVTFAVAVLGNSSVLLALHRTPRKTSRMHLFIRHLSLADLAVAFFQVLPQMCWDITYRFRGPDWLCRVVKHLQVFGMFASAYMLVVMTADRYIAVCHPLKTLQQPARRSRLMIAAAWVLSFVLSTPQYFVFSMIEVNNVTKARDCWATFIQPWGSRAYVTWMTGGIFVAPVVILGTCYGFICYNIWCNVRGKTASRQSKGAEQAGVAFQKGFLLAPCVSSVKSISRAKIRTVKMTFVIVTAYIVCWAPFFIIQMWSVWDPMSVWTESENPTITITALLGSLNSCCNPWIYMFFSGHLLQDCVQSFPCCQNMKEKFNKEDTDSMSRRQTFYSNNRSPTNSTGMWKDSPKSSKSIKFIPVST
T4 sequence (P28223 whole entry): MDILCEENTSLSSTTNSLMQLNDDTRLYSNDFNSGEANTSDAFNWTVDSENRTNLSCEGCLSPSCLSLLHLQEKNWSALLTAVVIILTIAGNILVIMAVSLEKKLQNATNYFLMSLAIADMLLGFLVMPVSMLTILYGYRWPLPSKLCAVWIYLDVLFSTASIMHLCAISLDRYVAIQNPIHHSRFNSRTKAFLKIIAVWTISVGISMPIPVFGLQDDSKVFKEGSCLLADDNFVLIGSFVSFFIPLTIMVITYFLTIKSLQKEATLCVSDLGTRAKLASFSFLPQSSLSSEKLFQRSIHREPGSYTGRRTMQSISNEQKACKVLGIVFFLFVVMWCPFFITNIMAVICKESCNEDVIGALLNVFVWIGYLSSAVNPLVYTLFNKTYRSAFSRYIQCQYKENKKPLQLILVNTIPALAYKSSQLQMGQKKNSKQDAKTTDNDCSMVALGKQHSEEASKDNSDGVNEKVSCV
Sequence of NET (P23975 whole entry): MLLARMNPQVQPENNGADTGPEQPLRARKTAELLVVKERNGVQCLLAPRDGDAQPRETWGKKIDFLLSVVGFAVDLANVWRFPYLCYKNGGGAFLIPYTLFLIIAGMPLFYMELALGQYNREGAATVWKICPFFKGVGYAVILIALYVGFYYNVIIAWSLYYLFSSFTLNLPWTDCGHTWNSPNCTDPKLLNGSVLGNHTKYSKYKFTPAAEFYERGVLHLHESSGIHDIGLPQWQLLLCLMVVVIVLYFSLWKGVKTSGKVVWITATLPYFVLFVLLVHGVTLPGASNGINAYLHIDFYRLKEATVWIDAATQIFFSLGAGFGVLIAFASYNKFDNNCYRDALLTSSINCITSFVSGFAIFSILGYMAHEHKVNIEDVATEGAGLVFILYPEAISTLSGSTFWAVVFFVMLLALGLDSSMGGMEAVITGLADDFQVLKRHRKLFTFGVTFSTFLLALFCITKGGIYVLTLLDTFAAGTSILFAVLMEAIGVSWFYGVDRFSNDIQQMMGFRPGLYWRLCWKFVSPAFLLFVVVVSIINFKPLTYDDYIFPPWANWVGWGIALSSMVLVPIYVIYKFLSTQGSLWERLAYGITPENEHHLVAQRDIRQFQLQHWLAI
Sequence of HTR2B (5-HT2B) (P41595 whole entry): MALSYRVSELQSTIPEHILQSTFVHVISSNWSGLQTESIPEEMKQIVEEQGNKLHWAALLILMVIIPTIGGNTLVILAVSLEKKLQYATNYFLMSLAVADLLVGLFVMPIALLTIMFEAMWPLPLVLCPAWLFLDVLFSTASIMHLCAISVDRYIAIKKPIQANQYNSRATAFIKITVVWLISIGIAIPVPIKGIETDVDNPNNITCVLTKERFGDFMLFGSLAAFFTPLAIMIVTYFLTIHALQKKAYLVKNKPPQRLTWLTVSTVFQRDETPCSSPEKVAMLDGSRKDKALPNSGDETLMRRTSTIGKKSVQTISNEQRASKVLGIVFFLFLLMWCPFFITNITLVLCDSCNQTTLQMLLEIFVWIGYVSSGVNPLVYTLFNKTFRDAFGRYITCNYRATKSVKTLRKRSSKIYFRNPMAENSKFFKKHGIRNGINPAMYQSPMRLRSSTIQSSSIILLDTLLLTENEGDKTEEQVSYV
Sequence of DRD1 (P21728 whole entry): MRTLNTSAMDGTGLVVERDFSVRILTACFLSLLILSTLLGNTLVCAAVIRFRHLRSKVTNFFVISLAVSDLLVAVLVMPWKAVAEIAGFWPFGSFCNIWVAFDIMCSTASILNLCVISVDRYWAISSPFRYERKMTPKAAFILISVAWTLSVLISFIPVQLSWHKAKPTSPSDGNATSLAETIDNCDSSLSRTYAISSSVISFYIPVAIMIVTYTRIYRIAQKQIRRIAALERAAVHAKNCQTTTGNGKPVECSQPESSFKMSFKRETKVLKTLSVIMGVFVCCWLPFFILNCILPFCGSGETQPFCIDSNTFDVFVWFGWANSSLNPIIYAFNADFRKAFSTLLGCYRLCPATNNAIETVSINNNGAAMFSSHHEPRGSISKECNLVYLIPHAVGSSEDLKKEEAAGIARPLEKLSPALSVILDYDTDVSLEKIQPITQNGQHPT

CN(C)Cc1c[nH]c2cccc(O[Si](C)(C)C(C)(C)C)c12 [A(IV)]
EC50 [1, 17]: > 100 µM
IC50 [2, 18]: 16 µM
EC50 [3, 19]: > 100 µM
IC50 [4, 20]: 42.3 µM
EC50 [5, 21]: > 100 µM
EC50 [6, 22]: > 100 µM
IC50 [7, 23]: > 100 µM
EC50 [8, 24]: 34 µM
IC50 [9, 25]: 0.851 µM
IC50 [10, 26]: 0.814 µM
EC50 [11, 27]: > 100 µM
IC50 [12, 28]: 0.83 µM
IC50 [13, 29]: 54.6 µM
IC50 [14, 30]: 25.4 µM
IC50 [15, 31]: > 100 µM
incidences of Head Twitch Response (HTR) relative to vehicle [16]: Elevated incidences of HTR

CC(C)[Si](Oc1cccc2[nH]cc(CN(C)C)c12)(C(C)C)C(C)C [A(V)]
EC50 [1, 17]: > 100 µM
IC50 [2, 18]: > 100 µM
EC50 [3, 19]: > 100 µM
IC50 [4, 20]: 17 µM
EC50 [5, 21]: > 100 µM
EC50 [6, 22]: > 100 µM
IC50 [7, 23]: > 100 µM
EC50 [8, 24]: > 100 µM
IC50 [9, 25]: 6.95 µM
IC50 [10, 26]: 3.14 µM
EC50 [11, 27]: > 100 µM
IC50 [12, 28]: 1.43 µM
IC50 [13, 29]: 48.8 µM
IC50 [14, 30]: > 100 µM
IC50 [15, 31]: 18.9 µM
incidences of Head Twitch Response (HTR) relative to vehicle [16]: Elevated incidences of HTR

CN(C)CCc1c[nH]c2cccc(OC(=O)OCc3ccccc3)c12 [B(II)]
EC50 [1]: > 100 µM
IC50 [2]: 9.08 µM
EC50 [3]: > 100 µM
IC50 [4]: 42.6 µM
EC50 [5]: > 100 µM
EC50 [6]: > 100 µM
IC50 [7]: > 100 µM
EC50 [8, 24]: > 100 µM
IC50 [9, 25]: 0.908 µM
IC50 [10]: 0.281 µM
EC50 [11]: > 100 µM
IC50 [12]: 2.34 µM
IC50 [13]: 21.9 µM
IC50 [14]: 4.69 µM
IC50 [15]: 26.5 µM

CN(C)CCc1c[nH]c2cccc(OC(=O)OCC3CC3)c12 [B(III)]
EC50 [1, 17]: > 100 µM
IC50 [2, 18]: > 100 µM
EC50 [3, 19]: > 100 µM
IC50 [4, 20]: > 100 µM
EC50 [5, 21]: > 100 µM
EC50 [6, 22]: > 100 µM
IC50 [7, 23]: > 100 µM
EC50 [8, 24]: > 100 µM
IC50 [9, 25]: 0.296 µM
IC50 [10, 26]: 0.0215 µM
EC50 [11, 27]: > 100 µM
IC50 [12, 28]: 47.4 µM
IC50 [13, 29]: > 100 µM
IC50 [14, 30]: > 100 µM
IC50 [15, 31]: > 100 µM
incidences of Head Twitch Response (HTR) relative to vehicle [16]: Elevated incidences of HTR

CCCCC(=O)OCOc1cccc2[nH]cc(CCN(C)C)c12 [D(III)]
EC50 [1, 17]: > 100 µM
IC50 [2, 18]: > 100 µM
EC50 [3, 19]: > 100 µM
IC50 [4, 20]: > 100 µM
EC50 [5, 21]: > 100 µM
EC50 [6, 22]: > 100 µM
IC50 [7, 23]: > 100 µM
EC50 [8, 24]: > 100 µM
IC50 [9, 25]: 0.587 µM
IC50 [10, 26]: 0.301 µM
EC50 [11, 27]: > 100 µM
IC50 [12, 28]: 32.4 µM
IC50 [13, 29]: > 100 µM
IC50 [14, 30]: > 100 µM
IC50 [15, 31]: > 100 µM
incidences of Head Twitch Response (HTR) relative to vehicle [16]: Elevated incidences of HTR

CCCC(=O)OCOc1cccc2[nH]cc(CCN(C)C)c12 [D(IV)]
EC50 [1, 17]: > 100 µM
IC50 [2, 18]: > 100 µM
EC50 [3, 19]: > 100 µM
IC50 [4, 20]: > 100 µM
EC50 [5, 21]: > 100 µM
EC50 [6, 22]: > 100 µM
IC50 [7, 23]: > 100 µM
EC50 [8, 24]: > 100 µM
IC50 [9, 25]: 1.27 µM
IC50 [10, 26]: 0.512 µM
EC50 [11, 27]: > 100 µM
IC50 [12, 28]: > 100 µM
IC50 [13, 29]: > 100 µM
IC50 [14, 30]: > 100 µM
IC50 [15, 31]: > 100 µM

CC(C)OC(=O)OCOc1cccc2c1c(CCN(C)C)cn2COC(=O)OC(C)C [D(XIII)]
EC50 [1, 17]: > 100 µM
IC50 [2, 18]: > 100 µM
EC50 [3, 19]: > 100 µM
IC50 [4, 20]: > 100 µM
EC50 [5, 21]: > 100 µM
EC50 [6, 22]: > 100 µM
IC50 [7, 23]: > 100 µM
EC50 [8, 24]: > 100 µM
IC50 [9, 25]: 16.3 µM
IC50 [10, 26]: 5.14 µM
EC50 [11, 27]: > 100 µM
IC50 [12, 28]: 16.7 µM
IC50 [13, 29]: > 100 µM
IC50 [14, 30]: > 100 µM
IC50 [15, 31]: > 100 µM
incidences of Head Twitch Response (HTR) relative to vehicle [16]: Elevated incidences of HTR

CN(C)CCc1c[nH]c2cccc(OP(=O)(Oc3ccccc3)Oc3ccccc3)c12 [F(I)]
EC50 [1]: > 100 µM
IC50 [2]: 40.3 µM
EC50 [3]: > 100 µM
IC50 [4]: > 100 µM
EC50 [5]: > 100 µM
EC50 [6]: > 100 µM
IC50 [7]: > 100 µM
EC50 [8]: > 100 µM
IC50 [9]: 0.168 µM
IC50 [10]: 0.127 µM
EC50 [11]: > 100 µM
IC50 [12]: 2.52 µM
IC50 [13]: 50.9 µM
IC50 [14]: > 100 µM
IC50 [15]: 41.8 µM
incidences of Head Twitch Response (HTR) relative to vehicle [16]: Elevated incidences of HTR
